Tests used:
Assay in all cases: post-emergent herbicidal activity, greenhouse
Format in all cases: in vivo
Morningglory = test system: Morningglory
Excerpt: (§1) A good grade of top soil is placed in aluminum pans having holes in the bottom and compacted to a depth of 0.95 to 1.27 cm. from the top of the pan. A predetermined number of seeds of each of several dicotyledonous and monocotyledonous annual plant species and/or vegetative propagules for the perennial plant species were placed on the soil and pressed into the soil surface. The seeds and/or vegetative propagules are covered with soil and leveled. The pans are then placed on a sand bench in the greenhouse and watered from below as needed. After the plants reach the desired age (two to three weeks), each pan except for the control pans is removed individually to a spraying chamber and sprayed by means of an atomizer operating at a positive air pressure of approximately 1.46 kg/cm^2 absolute. The atomizer contains 6 ml. of a solution or suspension of the chemical. In that 6 ml., is an amount of a cyclohexanone emulsifying agent mixture to give a spray solution or suspension which contains about 0.4% by weight of the emulsifier. The spray solution or suspension contains a sufficient amount of the candidate chemical in order to give application rates corresponding to those set forth in the tables. The spray solution is prepared by taking an aliquot of a 1.0% by weight stock solution or suspension of the candidate chemical in an organic solvent such as acetone or tetrahydrofuran or in water. The emulsifying agent employed is a mixture comprising 35 weight percent butylamine dodecylbenzene sulfonate and 65 weight percent of a tall oil ethylene oxide condensate having about 11 moles of ethylene oxide per mole of tall oil. The pans are returned to the greenhouse and watered as before and the injury to the plants as compared to the control is observed at approximately two and four weeks as indicated in the tables under WAT and the results recorded. In some instances, the two-week observations are omitted.
(§2) The post-emergent herbicidal activity index used in Tables I and II is as follows: […]

Sugar Beet = details: Table II, 4 WAT
Excerpt: as §1, §2

Canada Thistle = details: Table I
Excerpt: as §1, §2

Cocklebur = test system: Cocklebur
Excerpt: as §1, §2

Yellow Nutsedge = details: Table I
Excerpt: as §1, §2

Velvetleaf = test system: Velvetleaf
Excerpt: as §1, §2

Sorghum = details: Table II, 4 WAT
Excerpt: as §1, §2

Smartweed = test system: Smartweed
Excerpt: as §1, §2

Downy Brome = test system: Downy Brome
Excerpt: as §1, §2

Quackgrass = details: Table I
Excerpt: as §1, §2

Panicum Spp = details: Table II, 4 WAT
Excerpt: as §1, §2

Johnsongrass = details: Table I
Excerpt: as §1, §2

Rice = details: Table II, 4 WAT
Excerpt: as §1, §2

Wheat = details: Table II, 4 WAT
Excerpt: as §1, §2

Barnyardgrass = test system: Barnyardgrass
Excerpt: as §1, §2

Wild Buckwheat = details: Table II, 4 WAT
Excerpt: as §1, §2

Soybean = details: Table II, 4 WAT
Excerpt: as §1, §2

Lambsquarters = test system: Lambsquarters
Excerpt: as §1, §2

Hemp Sesbania = details: Table II, 4 WAT
Excerpt: as §1, §2

Crabgrass = details: Table II, 4 WAT
Excerpt: as §1, §2

Measured: post-emergent herbicidal activity index

CCOC(=O)CNCP(=O)(OC(C)C#N)OC(C)C#N (stereo not drawn) [Example 1, glycine, N-[[bis(1-cyanoethoxy)phosphinyl]methyl], ethyl ester]
1 (25-49% control): Morningglory; Table II, 4 WAT, 0.28 kg/h | Cocklebur; Table II, 4 WAT, 0.28 kg/h | Sorghum; 0.28 kg/h | Rice; 1.12 kg/h | Wheat; 0.28 kg/h | Lambsquarters; Table I, 4 WAT, 11.2 kg/h | Crabgrass; 0.28 kg/h
3 (75-99% control): Morningglory; Table I, 4 WAT, 5.6 kg/h | Morningglory; Table I, 4 WAT, 11.2 kg/h | Morningglory; Table II, 4 WAT, 5.6 kg/h | Canada Thistle; 4 WAT, 11.2 kg/h | Cocklebur; Table I, 4 WAT, 5.6 kg/h | Cocklebur; Table I, 4 WAT, 11.2 kg/h | Cocklebur; Table II, 4 WAT, 5.6 kg/h | Yellow Nutsedge; 4 WAT, 11.2 kg/h | Velvetleaf; Table I, 4 WAT, 11.2 kg/h | Sorghum; 1.12 kg/h | Smartweed; Table I, 4 WAT, 5.6 kg/h | Smartweed; Table II, 4 WAT, 1.12 kg/h | Downy Brome; Table I, 4 WAT, 5.6 kg/h | Quackgrass; 4 WAT, 5.6 kg/h | Johnsongrass; 4 WAT, 5.6 kg/h | Barnyardgrass; Table II, 4 WAT, 1.12 kg/h | Lambsquarters; Table I, 4 WAT, 5.6 kg/h | Lambsquarters; Table II, 4 WAT, 1.12 kg/h | Lambsquarters; Table II, 4 WAT, 5.6 kg/h | Crabgrass; 1.12 kg/h
4 (100% control): Sugar Beet; 1.12 kg/h | Sugar Beet; 5.6 kg/h | Canada Thistle; 4 WAT, 5.6 kg/h | Velvetleaf; Table I, 4 WAT, 5.6 kg/h | Velvetleaf; Table II, 4 WAT, 5.6 kg/h | Sorghum; 5.6 kg/h | Smartweed; Table I, 4 WAT, 11.2 kg/h | Smartweed; Table II, 4 WAT, 5.6 kg/h | Downy Brome; Table II, 4 WAT, 5.6 kg/h | Panicum Spp; 1.12 kg/h | Panicum Spp; 5.6 kg/h | Johnsongrass; 4 WAT, 11.2 kg/h | Rice; 5.6 kg/h | Wheat; 5.6 kg/h | Barnyardgrass; Table I, 4 WAT, 5.6 kg/h | Barnyardgrass; Table I, 4 WAT, 11.2 kg/h | Barnyardgrass; Table II, 4 WAT, 5.6 kg/h | Wild Buckwheat; 5.6 kg/h | Soybean; 5.6 kg/h | Crabgrass; 5.6 kg/h
5: Hemp Sesbania; 1.12 kg/h
2 (50-74% control): Morningglory; Table II, 4 WAT, 1.12 kg/h | Sugar Beet; 0.28 kg/h | Cocklebur; Table II, 4 WAT, 1.12 kg/h | Yellow Nutsedge; 4 WAT, 5.6 kg/h | Velvetleaf; Table II, 4 WAT, 1.12 kg/h | Downy Brome; Table I, 4 WAT, 11.2 kg/h | Downy Brome; Table II, 4 WAT, 1.12 kg/h | Quackgrass; 4 WAT, 11.2 kg/h | Panicum Spp; 0.28 kg/h | Wheat; 1.12 kg/h | Barnyardgrass; Table II, 4 WAT, 0.28 kg/h | Wild Buckwheat; 1.12 kg/h | Soybean; 1.12 kg/h | Hemp Sesbania; 5.6 kg/h
0 (0-24% control): Velvetleaf; Table II, 4 WAT, 0.28 kg/h | Smartweed; Table II, 4 WAT, 0.28 kg/h | Downy Brome; Table II, 4 WAT, 0.28 kg/h | Rice; 0.28 kg/h | Wild Buckwheat; 0.28 kg/h | Soybean; 0.28 kg/h | Lambsquarters; Table II, 4 WAT, 0.28 kg/h | Hemp Sesbania; 0.28 kg/h

CCOC(=O)CNCP(=O)(OCC1CCCCO1)OCC1CCCCO1 (stereo not drawn) [Example 23, glycine, N-[[bis(tetrahydro-2H-pyran-2-ylmethoxy)phosphinyl]methyl]-, ethyl ester]
0 (0-24% control): Morningglory; Table I, 2 WAT, 5.6 kg/h | Canada Thistle; 2 WAT, 5.6 kg/h | Canada Thistle; 4 WAT, 11.2 kg/h | Cocklebur; Table I, 2 WAT, 5.6 kg/h | Cocklebur; Table I, 4 WAT, 11.2 kg/h | Yellow Nutsedge; 2 WAT, 5.6 kg/h | Yellow Nutsedge; 4 WAT, 11.2 kg/h | Velvetleaf; Table I, 2 WAT, 5.6 kg/h | Velvetleaf; Table I, 4 WAT, 11.2 kg/h | Smartweed; Table I, 2 WAT, 5.6 kg/h | Downy Brome; Table I, 2 WAT, 5.6 kg/h | Downy Brome; Table I, 4 WAT, 11.2 kg/h | Quackgrass; 2 WAT, 5.6 kg/h | Quackgrass; 4 WAT, 11.2 kg/h | Johnsongrass; 2 WAT, 5.6 kg/h | Barnyardgrass; Table I, 2 WAT, 5.6 kg/h | Lambsquarters; Table I, 2 WAT, 5.6 kg/h | Lambsquarters; Table I, 4 WAT, 11.2 kg/h
1 (25-49% control): Morningglory; Table I, 4 WAT, 11.2 kg/h | Smartweed; Table I, 4 WAT, 11.2 kg/h | Barnyardgrass; Table I, 4 WAT, 11.2 kg/h

CCOC(=O)CNCP(=O)(O)OC(C)CC(=O)OCC (stereo not drawn) [Example 25]
1 (25-49% control): Morningglory; Table I, 4 WAT, 5.6 kg/h | Canada Thistle; 4 WAT, 11.2 kg/h | Velvetleaf; Table I, 4 WAT, 11.2 kg/h | Quackgrass; 4 WAT, 11.2 kg/h | Johnsongrass; 4 WAT, 5.6 kg/h | Barnyardgrass; Table I, 4 WAT, 5.6 kg/h
0 (0-24% control): Canada Thistle; 4 WAT, 5.6 kg/h | Cocklebur; Table I, 4 WAT, 5.6 kg/h | Yellow Nutsedge; 4 WAT, 5.6 kg/h | Velvetleaf; Table I, 4 WAT, 5.6 kg/h | Smartweed; Table I, 4 WAT, 5.6 kg/h | Smartweed; Table I, 4 WAT, 11.2 kg/h | Downy Brome; Table I, 4 WAT, 5.6 kg/h | Downy Brome; Table I, 4 WAT, 11.2 kg/h | Quackgrass; 4 WAT, 5.6 kg/h | Lambsquarters; Table I, 4 WAT, 5.6 kg/h | Lambsquarters; Table I, 4 WAT, 11.2 kg/h
2 (50-74% control): Morningglory; Table I, 4 WAT, 11.2 kg/h | Cocklebur; Table I, 4 WAT, 11.2 kg/h | Yellow Nutsedge; 4 WAT, 11.2 kg/h | Johnsongrass; 4 WAT, 11.2 kg/h | Barnyardgrass; Table I, 4 WAT, 11.2 kg/h

CCOC(=O)CNCP(=O)(O)OCC(Cl)(Cl)Cl [Example 26, glycine, N-[[(2,2,2-trichloroethoxy)hydroxyphosphinyl]methyl]-ethyl ester]
1 (25-49% control): Morningglory; Table I, 4 WAT, 56.0 kg/h | Cocklebur; Table I, 4 WAT, 11.2 kg/h | Cocklebur; Table I, 4 WAT, 56.0 kg/h | Yellow Nutsedge; 4 WAT, 56.0 kg/h | Smartweed; Table I, 4 WAT, 56.0 kg/h | Barnyardgrass; Table I, 4 WAT, 11.2 kg/h | Barnyardgrass; Table I, 4 WAT, 56.0 kg/h | Lambsquarters; Table I, 4 WAT, 11.2 kg/h | Lambsquarters; Table I, 4 WAT, 56.0 kg/h
0 (0-24% control): Morningglory; Table I, 4 WAT, 11.2 kg/h | Canada Thistle; 4 WAT, 11.2 kg/h | Canada Thistle; 4 WAT, 56.0 kg/h | Yellow Nutsedge; 4 WAT, 11.2 kg/h | Velvetleaf; Table I, 4 WAT, 11.2 kg/h | Velvetleaf; Table I, 4 WAT, 56.0 kg/h | Smartweed; Table I, 4 WAT, 11.2 kg/h | Downy Brome; Table I, 4 WAT, 11.2 kg/h | Downy Brome; Table I, 4 WAT, 56.0 kg/h | Quackgrass; 4 WAT, 11.2 kg/h | Quackgrass; 4 WAT, 56.0 kg/h | Johnsongrass; 4 WAT, 11.2 kg/h | Johnsongrass; 4 WAT, 56.0 kg/h
